Measurements reported in US5900231A, “Silicone-containing derivatives of salicylic acid which have desquamating properties” (L'Oreal, priority 1996, dated 1999).

How the values were obtained:
[1] = solubility in MIGLYOL 812 (mixture of caprylic acid and capric acid triglyceride); type: physicochemical
Method: The solubility of the silicon-containing derivatives of salicylic acid according to the invention in organic media was evaluated by comparing the solubility of 5-n-octanoylsalicylic acid with inventive compounds:
in a mixture of caprylic acid and capric acid triglyceride, marketed under the name MIGLYOL 812 by the company Huls.

keratinocytes = test: in vitro test of the efficacy of the desquamation on keratinocytes (release of corneocytes, flow cytometry); type: cell-based; details: for cell detachment index (difference between T60 and T0; release of corneocytes relative to control): 60 minutes after addition, relative to control without test product, equal concentrations; for desquamating activity compared with 5-n-octanoylsalicylic acid: at a concentration equal to that of 5-n-octanoylsalicylic acid
Method: An in vitro test of the efficacy of the desquamation was carried out on keratinocytes using 5-n-octanoylsalicylic acid (compound C1), 2-hydroxy4-(3-trimethylsilanylpropyloxy)benzoic acid (compound C2) and 2-hydroxy-5-(3-trimethylsilanylpropyloxy)benzoic acid (compound C3). C1 is a known powerful desquamating active agent, but not part of the present invention. C2 and C3 are compounds of the present invention.
The principle of the test rests on the fact that desquamation is known to induce the release of corneocytes. The desquamating power of the test product should be proportionately greater the larger the number of corneocytes released.
The test procedure was as follows: keratinocytes were obtained by separating the epidermis from skin biopsies, and these keratinocytes were dissociated by enzymatic action with trypsin and cultured at a concentration of 2×10^5 cells/ml. Growth and differentiation of the keratinocytes were obtained by culturing for 10 to 20 days in specific medium.
Next, after removing the culture medium, the test product was added and the activity of the product evaluated. To do this, two samples were taken at T0 and T60, i.e., before addition of the product and 60 minutes after this addition, and the samples thus taken were analysed on a flow cytometer to count the population of corneocytes.
The cell detachment index was determined by the difference between T60 and T0.
The same measurement was taken for a control containing no test product since the experiment inevitably produces the release of corneocytes, even in the absence of active agent. The variation of the control arbitrarily set the standard at 100%.

Row | SMILES | Solubility at room temperature [1] | cell detachment index (difference between T60 and T0; release of corneocytes relative to control) (keratinocytes) | desquamating activity compared with 5-n-octanoylsalicylic acid (keratinocytes)
1 | CC(Cc1cccc(C(=O)O)c1O)C[Si](C)(O[Si](C)(C)C)O[Si](C)(C)C (stereo not shown) [Compound C5, 2-hydroxy-3-[2-methyl-3-[1,3,3,3-tetramethyl-1-[(trimethylsilyl)oxy]disiloxanyl]propyl]benzoic acid] | > 20% | – | –
2 | CC(COc1ccc(C(=O)O)c(O)c1)C[Si](C)(O[Si](C)(C)C)O[Si](C)(C)C (stereo not shown) [Compound C4, 2-hydroxy-4-[2-methyl-3-[1,3,3,3-tetramethyl-1-[(trimethyl-silyl)oxy]disiloxanyl]propyloxy]benzoic acid] | 6% | – | –
3 | CCCCCCCC(=O)c1ccc(O)c(C(=O)O)c1 [Compound C1, 5-n-octanoylsalicylic acid, reference compound] | < 1.5% | 103% | –
4 | C[Si](C)(C)CCCOc1ccc(O)c(C(=O)O)c1 [Compound C3, 2-hydroxy-5-(3-trimethylsilanylpropyloxy)benzoic acid] | 7% | 135% | much more active than the latter
5 | C[Si](C)(C)CCCOc1ccc(C(=O)O)c(O)c1 [Compound C2, 2-hydroxy-4-(3-trimethylsilanylpropyloxy)benzoic acid] | 2% | 157% | much more active than the latter
